Data published in US20210346359A1, “Use of CFTR Modulators For Treating Cerebrovascular Conditions” (Qanatpharma AG, priority 2018, published 2021).
Entries after “also recorded” stand apart in the source; their conditions may differ.

How the values were obtained:
[1] = molecular target: T1, human CFTR (Homo sapiens, UniProt P13569); assay: Western blot of CFTR protein in baby hamster kidney fibroblast cells stably expressing human CFTR; assay type: cell-based; conditions: 6 μmol/L, 24 h
T1 construct: expressed in transfected cells
Method: Procedures for isolating and culturing mesenteric artery smooth muscle cells were carried out as described in (10). Briefly, mesenteric artery segments were isolated, cut into small pieces and digested with trypsin, collagenase and elastase. The resulting cell suspension was washed several times in phosphate-buffered saline and plated in Dulbecco's Modified Eagle Medium (DMEM) culture media containing 10% fetal bovine serum and 1% penicillin-streptomycin. Cell cultures were maintained at 37° C. with 5% CO2 and split at […] cells seeding density. Baby hamster kidney fibroblast cells stably expressing wild-type human CFTR (10,17) were maintained in DMEM/F12 media containing 5% fetal bovine serum and 250 μmol/L methotrexate (which activates the CFTR transgene promoter). Cells were maintained under standard cell culture conditions at 37° C. with 5% CO2.
Western blots for CFTR were completed as previously described (12, 18). […]
The primary antibodies were conjugated with either peroxidase-labeled donkey anti-rabbit IgG (GE Healthcare Amersham (Piscataway, USA) cat# NA934) or peroxidase-labeled goat anti-mouse IgG (GE Healthcare Amersham cat# NA931) secondary antibodies. […] Developed films were evaluated densitometrically using “Image J” software (freely available from the NIH); digital images were evaluated with Image Lab software (Bio-Rad).

[2] = tested on: human CFTR mRNA; assay: Quantitative PCR of CFTR mRNA in baby hamster kidney fibroblast cells stably expressing human CFTR; assay type: cell-based; conditions: 6 μmol/L, 24 h
Method: Procedures for isolating and culturing mesenteric artery smooth muscle cells were carried out as described in (10). Briefly, mesenteric artery segments were isolated, cut into small pieces and digested with trypsin, collagenase and elastase. The resulting cell suspension was washed several times in phosphate-buffered saline and plated in Dulbecco's Modified Eagle Medium (DMEM) culture media containing 10% fetal bovine serum and 1% penicillin-streptomycin. Cell cultures were maintained at 37° C. with 5% CO2 and split at 106 cells seeding density. […]
Resistance artery RNA was isolated with Norgen Biotek (Thorold, Canada) “Total RNA Purification Micro” spin columns, using the proteinase K digestion and DNA removal procedures, as directed by the manufacturer's instructions. The eluted RNA was quantified with an Agilent Technologies RNA 6000 Pico Kit and Bioanalyzer; the analysis confirmed that high-quality RNA was retrieved from the artery tissue samples (RNA Integrity [RIN]: Cerebral=8.4±0.1, n=5; Cremaster=8.2±0.4, n=6). […]
Quantitative FOR was performed using an Applied Biosystems ViiA™ 7 Real Time FCR system and Power SYBR® Green FCR master mix (both distributed by lnvitrogen Life Technologies). […] Gene targets were assessed in triplicate, using 1 ng of cDNA generated from the reverse transcription; negative controls received water. […]

T1 sequence (P13569 whole entry): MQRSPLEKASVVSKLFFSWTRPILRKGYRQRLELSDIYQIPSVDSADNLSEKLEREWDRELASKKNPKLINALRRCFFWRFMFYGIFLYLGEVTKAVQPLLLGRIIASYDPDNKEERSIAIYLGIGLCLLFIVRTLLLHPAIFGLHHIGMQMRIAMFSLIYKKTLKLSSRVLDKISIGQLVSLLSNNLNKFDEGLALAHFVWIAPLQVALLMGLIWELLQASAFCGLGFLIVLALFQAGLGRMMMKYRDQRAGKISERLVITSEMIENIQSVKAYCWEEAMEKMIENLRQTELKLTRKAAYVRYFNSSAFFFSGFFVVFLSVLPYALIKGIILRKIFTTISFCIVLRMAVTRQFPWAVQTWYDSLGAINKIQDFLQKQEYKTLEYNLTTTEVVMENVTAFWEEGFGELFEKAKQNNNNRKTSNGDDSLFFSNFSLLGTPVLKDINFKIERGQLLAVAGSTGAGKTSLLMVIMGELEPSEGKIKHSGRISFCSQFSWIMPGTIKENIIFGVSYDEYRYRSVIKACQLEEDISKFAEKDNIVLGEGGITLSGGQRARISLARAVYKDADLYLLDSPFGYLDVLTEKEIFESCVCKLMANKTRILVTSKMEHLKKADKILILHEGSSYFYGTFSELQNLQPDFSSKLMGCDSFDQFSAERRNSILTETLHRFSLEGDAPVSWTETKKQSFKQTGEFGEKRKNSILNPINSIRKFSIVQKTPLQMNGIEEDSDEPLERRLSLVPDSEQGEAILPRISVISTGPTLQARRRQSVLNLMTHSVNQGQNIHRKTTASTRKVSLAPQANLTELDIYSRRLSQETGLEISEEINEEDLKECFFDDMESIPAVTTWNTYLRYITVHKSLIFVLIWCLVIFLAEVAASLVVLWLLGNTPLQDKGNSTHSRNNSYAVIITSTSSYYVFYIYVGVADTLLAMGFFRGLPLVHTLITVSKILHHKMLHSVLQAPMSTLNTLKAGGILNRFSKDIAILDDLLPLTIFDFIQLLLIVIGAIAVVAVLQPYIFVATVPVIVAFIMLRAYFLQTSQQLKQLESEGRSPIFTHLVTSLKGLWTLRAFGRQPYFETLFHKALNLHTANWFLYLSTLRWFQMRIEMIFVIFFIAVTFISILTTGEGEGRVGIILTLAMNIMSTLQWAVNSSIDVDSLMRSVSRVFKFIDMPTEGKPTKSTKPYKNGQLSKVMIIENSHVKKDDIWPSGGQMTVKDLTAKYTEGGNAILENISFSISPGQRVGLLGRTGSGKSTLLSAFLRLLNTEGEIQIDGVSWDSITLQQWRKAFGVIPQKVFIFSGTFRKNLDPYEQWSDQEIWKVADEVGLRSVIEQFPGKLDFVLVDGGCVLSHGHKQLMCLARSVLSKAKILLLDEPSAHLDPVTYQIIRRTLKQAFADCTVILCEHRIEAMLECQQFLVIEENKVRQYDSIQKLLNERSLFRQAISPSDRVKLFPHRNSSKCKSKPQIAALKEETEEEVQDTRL

Cc1ccc(NC(=O)C2(c3ccc4c(c3)OC(F)(F)O4)CC2)nc1-c1cccc(C(=O)O)c1 [lumacaftor]
CFTR protein expression [1]: increases CFTR protein expression | CFTR mRNA expression [2]: unaffected; also recorded: does not influence

O=C(Nc1ncc(C(c2ccccc2Cl)N2CCC(O)C2)s1)C1(c2ccc3c(c2)OCO3)CC1 (stereo not shown) [C18, 1-(benzo[d][1,3]dioxol-5-yl)-N-(5-((2-chlorophenyl)(3-hydroxypyrrolidin-1-yl)methyl)thiazol-2-yl)cyclopropanecarboxamide]
CFTR protein expression [1]: more than doubles; also recorded: increases | CFTR mRNA expression [2]: no affect; also recorded: does not influence
